Laboratory results published in BindingDB's records for doi:10.1021/jm801420y (St. Jude Children'S Research Hospital, 2009).

Molecular target: Sonic hedgehog protein (Homo sapiens, UniProt Q15465)
Test: Inhibition of lipid-modified (octylated) form of SHH expressed in mouse s12 cells by luciferase reporter gene assay

Sequence of Sonic hedgehog protein (Homo sapiens, UniProt Q15465) (Q15465 24-197 limits assumed): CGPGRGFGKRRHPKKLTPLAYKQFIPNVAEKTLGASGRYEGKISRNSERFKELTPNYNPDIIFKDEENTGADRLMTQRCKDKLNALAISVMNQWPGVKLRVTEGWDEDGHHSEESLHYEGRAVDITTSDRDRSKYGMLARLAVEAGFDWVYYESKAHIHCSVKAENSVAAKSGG

Compound	IC50 [nM]
CC1=C2C(=O)[C@H]3[C@@H](CC=C4C[C@@H](O)CC[C@@]43C)[C@@H]2CC[C@]12O[C@@H]1C[C@H](C)CN[C@H]1[C@H]2C [5'-hydroxy-2',3,6,15'-tetramethyl-(1'S,2'R,2'R,3R,3aS,5'S,6S,7aR,10'S,11'S)-spiro[perhydrofuro[3,2-b]pyridine-2,14'-tetracyclo[8.7.0.02,7.011,16]heptadeca-7',15'-diene]-17'-one]	500
COc1cccc(CN(C(=O)CC(C)(C)C)[C@H]2C[C@@H](C(=O)N3CCNCC3)N(Cc3ccc4c(c3)OCO4)C2)c1 [N-((3S,5S)-1-(benzo[d][1,3]dioxol-5-ylmethyl)-5-(piperazine-1-carbonyl)pyrrolidin-3-yl)-N-(3-methoxybenzyl)-3,3-dimethylbutanamide]	100

Molecular target: Sonic hedgehog protein (Mus musculus, UniProt Q62226)
Test: Inhibition of SHH in mouse Shh Light2 cells by GLI-responsive firefly luciferase reporter gene assay

Sequence of Sonic hedgehog protein (Mus musculus, UniProt Q62226) (Q62226 25-198 limits assumed): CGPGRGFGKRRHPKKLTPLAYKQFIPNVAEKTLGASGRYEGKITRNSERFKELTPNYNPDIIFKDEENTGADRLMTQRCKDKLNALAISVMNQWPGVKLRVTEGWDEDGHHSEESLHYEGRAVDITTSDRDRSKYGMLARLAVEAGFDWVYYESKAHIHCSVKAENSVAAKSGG

Compound	IC50 [nM]	EC50 [nM]
CC1=C2C[C@H]3[C@@H](CC=C4C[C@@H](O)CC[C@@]43C)[C@@H]2CC[C@]12O[C@@H]1C[C@H](C)CN[C@H]1[C@H]2C		500
CC(=O)c1cccc(Nc2nc(-c3ccccc3)cs2)c1 [1-(3-(4-phenylthiazol-2-ylamino)phenyl)ethanone]	100	
CN(C)c1ccccc1CN1CCCN(Cc2ccccc2N(C)C)C1c1ccncc1 [2-((3-(2-(dimethylamino)benzyl)-2-(pyridin-4-yl)-tetrahydropyrimidin-1(2H)-yl)methyl)-N,N-dimethylbenzenamine]	5000	
CS(=O)(=O)c1ccc(C(=O)Nc2ccc(Cl)c(-c3ccccn3)c2)c(Cl)c1 [2-chloro-N-(4-chloro-3-(pyridin-2-yl)phenyl)-4-(methylsulfonyl)benzamide]	3	
c1cc(-c2sc(-c3ccncc3)c(-c3ccncc3)c2-c2ccncc2)ccn1 [4-(3,4,5-tri(pyridin-4-yl)thiophen-2-yl)pyridine]	5000	
COc1cc(OC)cc(C(=O)Nc2ccc(Cl)c(-c3nc4ccc(N(C)C)cc4[nH]3)c2)c1 [N-(4-chloro-3-(5-(dimethylamino)-1H-benzo[d]imidazol-2-yl)phenyl)-3,5-dimethoxybenzamide]		40

More lines, main results first:

IC50 [nM]	Compound	EC50 [nM]
100	Cc1nc2ccccn2c1-c1csc(NC(=O)c2ccc3ccccc3c2)n1 [N-(4-(2-methylimidazo[1,2-a]pyridin-3-yl)thiazol-2-yl)-2-naphthamide]	
30	CCOc1ccc(Nc2nc(-c3c(C)nc4ccccn34)cs2)cc1 [N-(4-ethoxyphenyl)-4-(2-methylimidazo[1,2-a]pyridin-3-yl)thiazol-2-amine]	
100	COc1ccc(Cl)cc1Nc1nc(-c2cccnc2)cs1 [N-(5-chloro-2-methoxyphenyl)-4-(pyridin-3-yl)thiazol-2-amine]	

Molecular target: T1, Zinc finger protein GLI1 (Homo sapiens, UniProt P08151)
T1 sequence (P08151 whole entry): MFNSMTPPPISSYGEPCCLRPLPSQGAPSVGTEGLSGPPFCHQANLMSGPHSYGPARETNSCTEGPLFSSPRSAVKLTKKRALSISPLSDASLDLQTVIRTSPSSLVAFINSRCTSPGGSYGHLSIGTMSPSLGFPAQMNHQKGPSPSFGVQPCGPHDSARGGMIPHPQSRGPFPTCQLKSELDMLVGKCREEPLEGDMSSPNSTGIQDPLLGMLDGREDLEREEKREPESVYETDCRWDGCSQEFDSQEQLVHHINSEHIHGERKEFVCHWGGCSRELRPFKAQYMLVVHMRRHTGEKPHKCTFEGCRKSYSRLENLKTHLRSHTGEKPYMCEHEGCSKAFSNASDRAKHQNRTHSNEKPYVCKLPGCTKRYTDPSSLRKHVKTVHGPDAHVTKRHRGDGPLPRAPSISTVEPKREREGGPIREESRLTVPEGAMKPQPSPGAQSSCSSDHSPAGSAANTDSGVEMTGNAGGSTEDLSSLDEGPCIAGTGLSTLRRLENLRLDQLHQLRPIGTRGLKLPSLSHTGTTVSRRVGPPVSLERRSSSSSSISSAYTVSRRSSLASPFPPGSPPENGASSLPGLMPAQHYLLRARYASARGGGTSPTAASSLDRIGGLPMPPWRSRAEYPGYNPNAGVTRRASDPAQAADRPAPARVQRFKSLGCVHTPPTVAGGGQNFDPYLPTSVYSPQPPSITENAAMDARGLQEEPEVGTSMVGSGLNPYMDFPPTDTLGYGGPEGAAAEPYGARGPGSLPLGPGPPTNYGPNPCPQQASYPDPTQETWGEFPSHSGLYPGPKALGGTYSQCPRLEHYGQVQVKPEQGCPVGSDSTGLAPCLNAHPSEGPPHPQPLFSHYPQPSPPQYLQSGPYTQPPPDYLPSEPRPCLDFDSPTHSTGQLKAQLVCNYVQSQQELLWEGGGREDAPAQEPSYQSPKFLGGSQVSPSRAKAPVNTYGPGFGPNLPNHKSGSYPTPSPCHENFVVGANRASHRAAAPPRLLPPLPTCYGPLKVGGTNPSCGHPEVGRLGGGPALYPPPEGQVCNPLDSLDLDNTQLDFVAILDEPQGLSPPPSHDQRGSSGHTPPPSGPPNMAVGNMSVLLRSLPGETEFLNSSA
Test: Inhibition of Gli1-mediated transcription expressed in human PANC1 cells

Compound	IC50 [nM]
O=C1NCc2c1c1c3ccccc3[nH]c1c1[nH]c3ccccc3c21	1800
C[C@]12C(=O)C=CCC1=CC[C@@H]1[C@@H]2CC[C@]2(O)C(=O)O[C@@]3(C)[C@H]4C[C@]5(C)[C@@H](CO[C@@]16O[C@@]32[C@H]5C6=O)C(=O)O4 [NSC-287088]	620
C[C@@]12C[C@H]3OC(=O)[C@@H]1CO[C@]14O[C@]5([C@H]2C1=O)[C@@](O)(CC[C@H]1[C@H]4C[C@H]2O[C@]24CC=CC(=O)[C@]14C)C(=O)O[C@@]35C [PHYSALIN F]	660
C/C1=C\CC(C)(C)/C=C/C(=O)/C(C)=C/CC1 [Zerumbone]	7100

Molecular target: Zinc finger protein GLI2 (Homo sapiens, UniProt P10070)
Test: Inhibition of Gli2-mediated transcription expressed in human PANC1 cells

Sequence of Zinc finger protein GLI2 (P10070 whole entry): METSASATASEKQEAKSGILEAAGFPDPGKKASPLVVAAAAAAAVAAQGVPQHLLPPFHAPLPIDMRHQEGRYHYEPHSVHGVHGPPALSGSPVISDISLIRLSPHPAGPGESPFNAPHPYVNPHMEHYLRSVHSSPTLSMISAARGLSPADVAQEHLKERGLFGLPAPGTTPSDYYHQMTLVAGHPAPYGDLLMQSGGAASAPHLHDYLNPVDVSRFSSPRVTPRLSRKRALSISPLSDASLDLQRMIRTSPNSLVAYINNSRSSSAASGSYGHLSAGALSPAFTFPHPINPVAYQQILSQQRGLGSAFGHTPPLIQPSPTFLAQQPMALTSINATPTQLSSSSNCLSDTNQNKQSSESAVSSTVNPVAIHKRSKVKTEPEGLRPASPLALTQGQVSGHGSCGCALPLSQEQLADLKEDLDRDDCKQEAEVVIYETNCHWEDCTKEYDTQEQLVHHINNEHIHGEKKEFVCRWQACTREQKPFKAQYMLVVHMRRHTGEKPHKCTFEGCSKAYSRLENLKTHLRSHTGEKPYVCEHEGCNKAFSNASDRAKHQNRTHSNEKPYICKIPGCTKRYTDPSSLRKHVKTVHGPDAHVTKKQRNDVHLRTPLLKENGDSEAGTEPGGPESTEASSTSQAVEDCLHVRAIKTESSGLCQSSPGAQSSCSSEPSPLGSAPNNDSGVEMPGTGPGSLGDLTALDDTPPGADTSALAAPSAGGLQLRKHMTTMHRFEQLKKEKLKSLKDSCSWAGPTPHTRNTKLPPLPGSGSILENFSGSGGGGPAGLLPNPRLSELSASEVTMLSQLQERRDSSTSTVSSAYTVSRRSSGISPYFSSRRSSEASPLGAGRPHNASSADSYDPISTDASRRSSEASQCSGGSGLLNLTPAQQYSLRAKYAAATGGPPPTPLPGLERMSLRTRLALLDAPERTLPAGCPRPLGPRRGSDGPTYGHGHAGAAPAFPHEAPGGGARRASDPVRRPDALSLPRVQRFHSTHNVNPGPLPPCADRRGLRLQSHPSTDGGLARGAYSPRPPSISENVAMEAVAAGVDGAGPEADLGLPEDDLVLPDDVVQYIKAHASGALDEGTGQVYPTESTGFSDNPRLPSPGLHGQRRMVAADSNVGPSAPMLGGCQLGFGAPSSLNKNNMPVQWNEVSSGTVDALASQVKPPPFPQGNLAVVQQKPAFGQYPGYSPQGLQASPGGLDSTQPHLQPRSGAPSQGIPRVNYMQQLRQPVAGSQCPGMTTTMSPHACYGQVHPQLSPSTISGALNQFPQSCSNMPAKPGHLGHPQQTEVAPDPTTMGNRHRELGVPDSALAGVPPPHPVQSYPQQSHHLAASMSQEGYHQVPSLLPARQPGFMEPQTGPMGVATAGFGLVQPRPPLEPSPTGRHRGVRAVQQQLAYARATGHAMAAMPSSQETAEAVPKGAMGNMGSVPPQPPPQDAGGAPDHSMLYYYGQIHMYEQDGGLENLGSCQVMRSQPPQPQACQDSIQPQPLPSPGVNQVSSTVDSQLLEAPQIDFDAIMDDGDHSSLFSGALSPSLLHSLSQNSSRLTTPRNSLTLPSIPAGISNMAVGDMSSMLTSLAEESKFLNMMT

Compound	IC50 [nM]
O=C1NCc2c1c1c3ccccc3[nH]c1c1[nH]c3ccccc3c21	2700
C/C1=C\CC(C)(C)/C=C/C(=O)/C(C)=C/CC1 [Zerumbone]	910

Molecular target: not listed separately
Test: Inhibition of SHH-mediated mouse C3H10T1/2 cells differentiation into osteoblasts by alkaline phosphatase assay

IC50 [nM]	Compound
2.8	Cc1cccc(C)c1NC(=O)c1ccc(Nc2nc(C3CC3)c3ccccc3n2)cc1 [4-(4-cyclopropylquinazolin-2-ylamino)-N-(2,6-dimethylphenyl)benzamide]
< 20	Cc1nn(-c2ccccc2)c(C)c1C=NN1CCN(Cc2ccccc2)CC1 [4-benzyl-N-((3,5-dimethyl-1-phenyl-1H-pyrazol-4-yl)methylene)piperazin-1-amine]
< 100	COc1ccc(-c2cc(C3CC3)nc(SCC(C)=O)c2C#N)cc1 [6-cyclopropyl-4-(4-methoxyphenyl)-2-(2-oxopropylthio)nicotinonitrile]
200	CCCCCc1ccc(-c2ccc(/C=C/C(=O)N3CCCCC3)cc2)nc1 [(E)-3-(4-(5-pentylpyridin-2-yl)phenyl)-1-(piperidin-1-yl)prop-2-en-1-one]
5.8	CN1CCCc2ccc(NC(=O)c3ccc(Nc4nc(-c5ccccc5)c5ccccc5n4)cc3)cc21 [N-(1-methyl-1,2,3,4-tetrahydroquinolin-7-yl)-4-(4-phenylquinazolin-2-ylamino)benzamide]
3.6	Cc1cccc(C)c1NC(=O)c1ccc(Nc2nc(-c3ccccc3)c3cccnc3n2)cc1 [N-(2,6-dimethylphenyl)-4-(4-phenylpyrido[2,3-d]pyrimidin-2-ylamino)benzamide]
30	CCOc1cc(C(=O)Nc2ccc(Cl)c(-c3nc4ccccc4[nH]3)c2)cc(OCC)c1OCC [N-(3-(1H-Benzo[d]imidazol-2-yl)-4-chlorophenyl)-3,4,5-triethoxybenzamide]
